Assay in all cases: growth of human tumour cells (NCI), 48 h
Assay [1] has as its system DMS-114.
For assay [2], the system named is LXFL 529.
The test system of assay [3] is KM-20L2.
Assay [4] has as its system M19-MEL.
In assay [5] the test system is SNB-78.
For assay [6], the system named is HOP-18.
In assay [7] the test system is XF498.
For assay [8], the system named is DLD-1.
Assay [9] has as its system RXF 631.

Structures are written as SMILES.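 Growth conditions: 96-well plates. Treatment: test compound, 48 hours, 5 concentrations. Analysis: linear interpolation between bracketing concentrations; unreached endpoints set to highest concentration. GI50 is the concentration that inhibits growth by half.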 The source made the active and inactive calls. Cut-off read from the data, not from the text of the source: active = GI50 up to about 1.1 µM and inactive = higher. Some results are limits rather than exact numbers.

As to `c1ccc2c(c1)CCCc1cc3ccccc3nc1-2`, the GI50 in assay [1] was 26.9 µM (inactive); in [2], > 100 µM (inactive); in [3], > 100 µM (inactive); in [4], > 100 µM (inactive); in assay [5], 85.7 µM (inactive); in [6], > 100 µM (inactive). Further, the GI50 in assay [7] was 53.3 µM (inactive); in [8] it was > 100 µM (inactive).
Turning to `Cc1cc2c(=O)c3ccccc3[nH]c2c(C(=O)O)c1C`, the GI50 in [1] was > 100 µM (inactive); in assay [2], > 100 µM (inactive); in assay [3] it was > 100 µM (inactive); in [4] it was > 100 µM (inactive); in assay [5], 36.6 µM (inactive); in assay [7] it was > 100 µM (inactive). Further, in assay [8], the GI50 is > 100 µM (inactive).
For `CCC(=C(c1ccc(OCc2ccccc2)cc1)c1ccc(OCc2ccccc2)cc1)c1ccc(OC)cc1`, the GI50 in assay [1], in assay [2], in assay [3], in assay [4], in assay [5] and in [7] was > 100 µM (inactive) in each case. Besides, the GI50 in assay [8] is > 100 µM (inactive).
As to `CC(C)=CC1C[C@H](C2CC=C3C2(C)CCC2[C@@]3(C)C(=O)CC3[C@]2(C)C=CC(=O)[C@]3(C)CO)CO1` (some centres undefined), the GI50 is 4.23 µM (inactive) in assay [1]; 3.45 µM (inactive) in assay [2]; 5.42 µM (inactive) in [3]; 3.85 µM (inactive) in [4]; 13.6 µM (inactive) in assay [5]; 11 µM (inactive) in assay [6]. Moreover, the GI50 in [7] is 4.93 µM (inactive).
Turning to `Cn1cnc2nc(Cl)nc(NC(C)(C)C(C)(C)O)c21`, the GI50 in [1], in [3], in assay [5], in assay [6], in assay [7] and in [8] was > 100 µM (inactive) throughout.
In the case of `COc1ccc(CN[C@H]2CCc3cc(OC)c(OC)c(OC)c3-c3ccc(SC)c(=O)cc32)c(OC)c1OC`, the GI50 in [1] is 0.019 µM (active); in assay [2], 0.0447 µM (active); in assay [3], 0.0185 µM (active); in assay [4], 0.0338 µM (active); in [5] it was 0.0394 µM (active); in [6], 58.3 µM (inactive). The values for the GI50 in assay [7] and in [8] were 0.0308 µM (active) and 0.0327 µM (active), respectively.
For the molecule `COCC(=O)OC1CCn2c1nc1c2C(=O)C(C)=C(NC(C)=O)C1=O` (centres undefined), the GI50 in assay [1] was 1.82 µM (inactive); in assay [2], 3.35 µM (inactive); in assay [3], 20.4 µM (inactive); in assay [4] it was 11.7 µM (inactive); in assay [5], 1.81 µM (inactive); in [6], 27.9 µM (inactive). Besides, the GI50 in [7] was 4.41 µM (inactive); in assay [8], 12.9 µM (inactive).
For `CCN(CC)CCN1CCc2c([nH]c3ccccc23)C1c1cccnc1` (centres undefined), the GI50 in [1], in assay [2], in assay [3], in assay [4], in [5] and in assay [6] was > 100 µM (inactive) in each case. Further, the GI50 in assay [7] and in assay [8] was > 100 µM (inactive) each time.
As for `O=c1c2cccc3cccc(c4oc5c6cccc7cccc(c(=O)c5c14)c76)c32`, the GI50 in assay [1] was 12.5 µM (inactive); in assay [2], 11.1 µM (inactive); in assay [3], 15.4 µM (inactive); in assay [4] it was 12 µM (inactive); in [5], 13.7 µM (inactive); in assay [9] it was 11.4 µM (inactive). In addition, the GI50 is 14.6 µM (inactive) in assay [6] and 15.1 µM (inactive) in [8].
Take `CCOC(=O)C(C(=O)OCC)=C1C=C(c2ccccc2)c2ccccc21`: the GI50 in assay [1] was 54.6 µM (inactive); in assay [2] it was 53.2 µM (inactive); in assay [3], 31.6 µM (inactive); in [4] it was 52.5 µM (inactive); in assay [5], > 100 µM (inactive); in assay [7], 70.5 µM (inactive). Also, the GI50 in [8] was 10.7 µM (inactive).
Consider `CC(=O)SC(SC(C)=O)SC(C)=O`, for which the GI50 in [1] was 31.1 µM (inactive); in assay [2], 51.8 µM (inactive); in assay [3], > 100 µM (inactive); in assay [4], > 100 µM (inactive); in assay [5] it was > 100 µM (inactive); in assay [9], > 100 µM (inactive). Besides, the GI50 in assay [6] and in assay [8] was > 100 µM (inactive) each time.
Consider `O=CC1CCC=CC1NC(=O)OCc1ccccc1` (centres undefined), for which the GI50 in assay [1] is 22.7 µM (inactive); in [2], 44.5 µM (inactive); in assay [4] it was 41.8 µM (inactive); in assay [5], 50 µM (inactive); in assay [6], > 100 µM (inactive); in assay [7], 44.2 µM (inactive). Also, the GI50 in assay [8] is 27.2 µM (inactive).
For the molecule `O=C1Nc2ccccc2N/C1=C\C(=O)c1ccccc1O`, the GI50 in assay [1], in [2], in assay [3], in assay [4], in assay [5] and in assay [6] was > 100 µM (inactive) in each case. In assay [8], the GI50 was > 100 µM (inactive).
For the molecule `O=C1NC2(CCCCCC2)C2CCCCCCC12O` (centres undefined), the GI50 in assay [1], in assay [2], in [4], in assay [5], in assay [6] and in assay [7] was > 100 µM (inactive) in each case. Besides, in assay [8], the GI50 is > 100 µM (inactive).
For the molecule `O=C(NCCO)c1ccc([N+](=O)[O-])cc1`, the GI50 in [1], in assay [2], in [3], in assay [4], in assay [5] and in [9] was > 100 µM (inactive) in each case. The GI50 in assay [7] and in assay [8] was > 100 µM (inactive) throughout.
On to `C/C(CC(=O)Nc1ccc([N+](=O)[O-])cc1)=N\Nc1ccc([N+](=O)[O-])cc1[N+](=O)[O-]`, for which the GI50 in assay [1] is 48.5 µM (inactive); in assay [2], 20.9 µM (inactive); in [3], 32.8 µM (inactive); in assay [4] it was > 100 µM (inactive); in [5], > 100 µM (inactive); in [9] it was > 100 µM (inactive). Moreover, the values for the GI50 in assay [7] and in assay [8] were 86.7 µM (inactive) and 39.4 µM (inactive), respectively.
With `CC(=O)C1C(c2ccccc2)C2(C)OC(=O)C(C#N)C12C` (centres undefined), the GI50 in assay [1], in [2], in assay [3], in assay [4], in assay [5] and in [6] was > 100 µM (inactive) each time. Also, the GI50 in [7] and in [8] was > 100 µM (inactive) throughout.
As to `CC12OC3(O)C4C5CC(C6C5C3C61)C42` (centres undefined), the GI50 in assay [1] is > 100 µM (inactive); in [2], 22.9 µM (inactive); in assay [3] it was > 100 µM (inactive); in assay [4], > 100 µM (inactive); in assay [5], > 100 µM (inactive); in [9], > 100 µM (inactive). Also, the GI50 in assay [6] and in assay [8] was > 100 µM (inactive) each time.
Consider `C=CCC1=C(C)C[C@@H]2CCC(=O)C=C12`, for which the GI50 in assay [1], in [2], in assay [4], in assay [5] and in assay [9] was > 100 µM (inactive) each time.
With `COc1ccc(O)cc1C(O)c1ccccc1` (centres undefined), the GI50 in assay [2], in assay [3], in [4], in assay [5], in assay [6] and in [7] was > 100 µM (inactive) throughout. Moreover, the GI50 in [8] was > 100 µM (inactive).
On to `Brc1cccc(/C=N/C23CC4CC(CC(C4)C2)C3)c1`, for which the GI50 in assay [1], in [2], in assay [3], in [4], in [5] and in assay [6] was > 100 µM (inactive) each time. Besides, the GI50 in assay [7] and in [8] was > 100 µM (inactive) in each case.
For `C=CCNC(=S)N/C=C1\C(=O)Oc2ccccc2C1=O`, the GI50 in assay [1] is 35.2 µM (inactive); in assay [2], > 100 µM (inactive); in assay [3], > 100 µM (inactive); in assay [4] it was > 100 µM (inactive); in assay [5], 43.9 µM (inactive); in [6], 46.2 µM (inactive). Further, the results for the GI50 in assay [7] and in assay [8] were 18.9 µM (inactive) and 41.1 µM (inactive), respectively.
For the molecule `N#CC(/C(=N/NC(=N)N)C(=O)Nc1ccccc1[N+](=O)[O-])c1nc(-c2ccc([N+](=O)[O-])cc2)cs1` (centres undefined), the GI50 in [1], in assay [2], in assay [3], in [4], in assay [5] and in [7] was > 100 µM (inactive) in each case. Further, the GI50 in [8] was > 100 µM (inactive).
For the molecule `O=C(C(=O)c1cc2ccccc2[nH]1)c1cc2ccccc2[nH]1`, the GI50 in assay [1] is > 220 µM (inactive); in [2] it was > 210 µM (inactive); in [3], > 347 µM (inactive); in assay [4], > 195 µM (inactive); in assay [5], > 347 µM (inactive); in assay [9], > 347 µM (inactive). Further, the figures for the GI50 in assay [7] and in [8] were > 176 µM (inactive) and > 316 µM (inactive), respectively.
Regarding `CC(=O)Nc1ccc(S(=O)(=O)N/N=C/CN2C(=O)c3ccccc3C2=O)cc1`, the GI50 in assay [1], in assay [2], in assay [3], in assay [4], in [7] and in assay [8] was > 100 µM (inactive) throughout.

The values are drawn from ChEMBL document CHEMBL1201862, “PubChem BioAssay data set” (2004).
